We go through five molecules from US8148424B2, “Tocopherols, tocotrienols, other chroman and side chain derivatives and uses thereof” (Research Development Foundation, priority 1998, dated 2012).

For orientation: pEC50 means the negative decadic logarithm of the EC50, by convention in mol/L. Broadly, the EC50 is the midpoint of the concentration-response curve.

pEC50: −log10 of the molar value. Like-named read-outs stand apart in the source and are kept apart here.

The subject of test [1] is MCF-7 cells. The test can be described thus: DNA synthesis arrest by 3H-uptake (Example 8). Type of test: cell-based, human. The conditions noted are these: 3H-uptake at one day treatment. Here is the method: (§1) MDA-MB-435 and MCF-7 cells at 1.5×10^5/well in 12 well plates for apoptosis and 1.5×10^4/well in 96 well plates for DNA synthesis arrest were incubated overnight in culture media and treated with α-tocopherol, α-tocotrinel, compound 1, 6-0-carboxymethyl alpha-tocotrienol (6-0-CM-α-T, 44), and vitamin E succinate (VES) at different concentrations in experimental media (2% serum for MDA-MB-435 cells and 5% serum for MCF-7 cells). DNA synthesis arrest was determined by ^3H-uptake at one day treatment and apoptosis was detected by DAPI staining at three day treatment. EC50 was calculated as the dosage of test compounds that gave 50% growth inhibition.

Test [2] deals with MDA-MB-435 cells. The test is described as follows: DNA synthesis arrest by 3H-uptake (Example 8). The test is classed as cell-based, human. The conditions noted are these: for pEC50: MDA-MB-435, 2% serum, 3H-uptake at one day treatment. Here is the method: as §1
For test [3], the system named is MDA-MB-435. The test can be described thus: Bioassay for apoptosis (apoptotic EC50). The note with it: for pEC50: Table 1, read-out: EC50 for Apoptosis. Type of test: cell-based, human. The method, boiled down: (§2)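 Both floating and trypsin-released adherent cells are collected after compound treatment at six concentrations from 0.01 to 20 μg/mL over up to 3 days. Nuclei are stained with DAPI at 37° C and/or TUNEL-labelled; the fraction with apoptotic morphology is scored.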

Test [4] relates to breast tumor cell line MDA-MB-435. The test is described as follows: Bioassay for DNA synthesis arrest, naturally occurring vitamin E compounds. The test is classed as cell-based, human. The note with it: Table 1. Here is the method:
Table 1 provides tumor growth inhibitory properties of naturally occurring vitamin E compounds against the breast tumor cell line MDA-MB-435.
To assay DNA synthesis, all cells were used at 2.5×10^5/ml. Cells were treated with each of the compounds at concentrations of 0.01, 0.1, 1, 5, 10 and 20 μg/mL and 200 μl of each treatment group were plated in quadruplicate in a 96 well culture plate (Corning, Corning N.Y.). Experiments were done in duplicate, one plate used for viability testing and the other plate for examination of ^3H-TdR uptake to monitor DNA synthesis. Plates were cultured for 48 hours at 37° C., 5% CO2. Eight hours prior to the end of incubation, ^3H-TdR was added to one of the duplicate plates and incubation continued for 8 hours.
The cells were then harvested (trypsinization was required to harvest adherent cells), and isotope uptake was determined as counts per minute (cpm). For viability studies, at the end of the incubation, the cells were removed from the wells and viability checked by the Trypan Blue Exclusion method. Percent viability and percent DNA synthesis in comparison to untreated or vehicle treated cells of each treatment group were calculated.

In test [5] the test system is MCF-7 cells. The test is described as follows: Apoptosis by DAPI staining (Example 8). Type of test: cell-based, human. The note with it: 5% serum, DAPI staining at three day treatment. Here is the method:
as §1

The subject of test [6] is MDA-MB-435 cells. The test can be described thus: Apoptosis by DAPI staining (Example 8). Type of test: cell-based, human. The conditions noted are these: for pEC50: MDA-MB-435, 2% serum, DAPI staining at three day treatment. Here is the method: as §1
Test [7] deals with ME-180. The test is described as follows: Bioassay for apoptosis (apoptotic EC50). Type of test: cell-based, human. The method, boiled down:
as §2

Test [8] concerns C-170. The test can be described thus: Bioassay for apoptosis (apoptotic EC50). The test is classed as cell-based, human. The note with it: Homo sapiens, C170, C-170; unit inferred. The essentials: as §2
The test system of test [9] is HL-60. The test is described as follows: Bioassay for apoptosis (apoptotic EC50). The test is classed as cell-based, human. The essentials: as §2
In test [10] the test system is Jurkat. The test can be described thus: Bioassay for apoptosis (apoptotic EC50). Type of test: cell-based, human. The essentials: (§3)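 Apoptosis was quantified microscopically after 1, 2 or 3 days of exposure to test compounds (0.01–20 μg/mL). Cells showing condensed or fragmented nuclear chromatin on DAPI staining, or fragmented DNA by TUNEL, counted as apoptotic.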

Test [11] concerns A-549. The test can be described thus: Bioassay for apoptosis (apoptotic EC50). The test is classed as cell-based, human. The method, boiled down: as §3
Test [12] relates to HT-29. The test can be described thus: Bioassay for apoptosis (apoptotic EC50). The test is classed as cell-based, human. The method, boiled down:
as §3

Test [13] concerns MCF-7. The test is described as follows: Bioassay for apoptosis (apoptotic EC50). Type of test: cell-based, human. The essentials:
as §2

For test [14], the system named is PREC. The test is described as follows: Bioassay for apoptosis (apoptotic EC50). Type of test: cell-based. The conditions noted are these: Homo sapiens, unit inferred. Here is the method: Cells were cultured at 1.5×10^5 cells/well in 12 well plates. Cells were allowed to adhere overnight, then incubated with novel test compounds at 0.01, 0.1, 1, 5, 10 & 20 μg/mL for 1, 2 and 3 days. After treatment, cells (floating+trypsin released adherent cells) were pelleted, washed and stained with 2 μg/ml DAPI (4′,6-diamidine-2′-phenylindole dihydrochloride) in 100% methanol for 15 minutes at 37° C. and/or 3′-OH ends resulting from DNA fragmentation were detected with the TUNEL (terminal deoxynucleotidyl transferase-mediated dUTP-X 3′ nick end-labeling) technique, and then viewed using a Zeiss ICM 405 microscope. Cells whose nucleus contained clearly condensed or fragmented chromatin or stained for fragmented DNA in the TUNEL assay were scored as apoptotic. Data are presented as percent cells undergoing apoptosis.

Test [15] relates to DLD-1. The test can be described thus: Bioassay for apoptosis (apoptotic EC50). The test is classed as cell-based, human. The note with it: unit not given, in µg/mL. The essentials:
as §3

Test [16] relates to Ramos. The test can be described thus: Bioassay for apoptosis (apoptotic EC50). The test is classed as cell-based, human. The conditions noted are these: unit not given. The essentials:
as §3

The subject of test [17] is RL-95-2. The test is described as follows: Bioassay for apoptosis (apoptotic EC50). Type of test: cell-based, human. The conditions noted are these: RL-95-2; unit not given; in µg/mL. The essentials: as §2
In test [18] the test system is LnCaP. The test can be described thus: Bioassay for apoptosis (apoptotic EC50). The test is classed as cell-based, human. The note with it: unit not given, in µg/mL. The essentials: as §2
Test [19] deals with DU-145. The test is described as follows: Bioassay for apoptosis (apoptotic EC50). Type of test: cell-based, human. The conditions noted are these: unit not given, in µg/mL. The method, boiled down: as §3
Test [20] deals with Myeloma. The test is described as follows: Bioassay for apoptosis (apoptotic EC50). The test is classed as cell-based, human. The note with it: unit not given. The method, boiled down:
as §3

Test [21] concerns MDA-MB-231. The test is described as follows: Bioassay for apoptosis (apoptotic EC50). Type of test: cell-based, human. The note with it: MDA-MB-231; unit not given; in µg/mL. The method, boiled down: as §2
Test [22] deals with Raji. The test is described as follows: Bioassay for apoptosis (apoptotic EC50). Type of test: cell-based, human. The conditions noted are these: unit not given. The method, boiled down:
as §3

Test [23] has as its system PC-3. The test can be described thus: Bioassay for apoptosis (apoptotic EC50). Type of test: cell-based, human. The note with it: PC-3; unit not given; in µg/mL. The essentials:
as §2

As to `Cc1c(C)c2c(c(C)c1O)CC[C@@](C)(CCC[C@H](C)CCC[C@H](C)CCCC(C)C)O2` [α-tocopherol, RRR-α-tocopherol, reference compound], the pEC50 in test [1] (5% serum) is below 4.00; in test [2], below 4.00; in test [3] (MDA-MB-435) it was below 3.40; in [4], below 3.40; in test [5] it was below 4.00; in test [6] it was below 4.00.

Molecule `CC(C)=CCC/C(C)=C/CC/C(C)=C/CC[C@]1(C)CCc2c(C)c(OCC(=O)O)c(C)c(C)c2O1` [Compound 44] showed a pEC50 in [1] (Homo sapiens, MCF7, 5% serum) of 5.30. The same molecule showed a pEC50 in [2] (Homo sapiens) of 5.60. For the same molecule, in test [2] (MDA-MB-435 and MCF-7), the “antitumor activity (DNA synthesis arrest) higher than alpha-tocotrienol” value is reported as 8-12 fold, the “antitumor activity (DNA synthesis arrest) higher than compound 1” value is recorded as 4-6 fold and the “antitumor activity (DNA synthesis arrest) higher than vitamin E succinate” value is recorded as 4-7 fold. The same molecule had a pEC50 in [5] (Homo sapiens, MCF7, 72 h) of 5.00. This molecule also had a pEC50 in test [6] (Homo sapiens, 72 h) of 5.25. In test [6] (MDA-MB-435 and MCF-7), the “induction of apoptosis higher than alpha tocotrienol” value is listed as 4-12 fold, the “induction of apoptosis higher than compound 1” value is 4-5 fold and the “induction of apoptosis higher than vitamin E succinate” value was 4-6 fold.

On to `CC(C)=CCC/C(C)=C/C=C/C(C)=C/[C@]1(C)CCc2c(C)c(OCC(=O)O)c(C)c(C)c2O1` [Compound 18], for which the EC50 in test [3] (Homo sapiens, MDA-MB-435, MDA-MB-435, unit inferred, read-out: apoptotic EC50) was above 20 µg/mL; in test [7] (Homo sapiens, ME-180, ME-180, unit inferred), above 20 µg/mL; in [8] it was above 20 µg/mL; in test [9] (Homo sapiens, HL-60, HL-60, unit inferred), above 20 µg/mL; in test [10] (Homo sapiens, unit inferred), above 20 µg/mL; in test [11] (Homo sapiens, A549, unit inferred), above 20 µg/mL. The EC50 in [12] (Homo sapiens, unit inferred) is above 20 µg/mL; in [13] (Homo sapiens, MCF7, MCF-7, unit inferred) it was above 20 µg/mL; in test [14], above 20 µg/mL.

For `Cc1c(C)c2c(c(C)c1OC(=O)CCC(=O)O)CC[C@@](C)(CCC[C@H](C)CCC[C@H](C)CCCC(C)C)O2` [VES, RRR-α-tocopherol succinate, reference compound], the pEC50 in [1] (5% serum) is 4.66; in test [2], 4.77; in test [5], 4.40; in [6] it was 4.44. Also, the “apoptotic EC50” value is recorded as 5-10 in test [3] (MDA-MB-435, unit not given, in µg/mL); 10-20 in test [7] (ME-180, unit not given, in µg/mL); 10-20 in test [15]; 10-20 in [16]; 10-20 in test [17]; 5-10 in test [18]. For the same molecule, the “apoptotic EC50” value is recorded as 10-20 in test [9] (HL-60, unit not given, in µg/mL); 10-20 in test [10] (unit not given, in µg/mL); 20-30 in [11] (unit not given, in µg/mL); 5-10 in [12] (unit not given, in µg/mL); 10-20 in test [13] (MCF-7, unit not given, in µg/mL); 10-20 in test [19]. For the same molecule, the “apoptotic EC50” value in test [20] is 10-20; in test [21] it was 5-10; in [22] it was 10-20; in test [23] it was 10-20.

For the molecule α-tocotrienol [reference compound], the pEC50 is 4.40 in test [1] (5% serum); 4.54 in test [2]; 4.30 in [3] (MDA-MB-435); 4.40 in [4]; 4.40 in [5]; 4.18 in [6].
